Measured values taken from PubChem BioAssay (NCI).
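Dose response: 5 concentrations. Exposure: 48 h. Format: 96-well plates. Endpoint: linear interpolation; highest concentration if not reached. GI50 = concentration required for 50% inhibition of growth. At the TGI there is no net growth.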

Key:
Test in all cases: DTP human tumour cell line panel, 48 h
SK-MEL-28 melanoma = test system: SK-MEL-28 melanoma
NCI-H460 lung = test system: NCI-H460 lung
UO-31 renal = test system: UO-31 renal
IGROV1 ovarian = test system: IGROV1 ovarian
EKVX NSCLC = test system: EKVX NSCLC
T-47D breast = test system: T-47D breast
OVCAR-8 ovarian = test system: OVCAR-8 ovarian
HCT-116 colon = test system: HCT-116 colon
HOP-92 NSCLC = test system: HOP-92 NSCLC
HCC-2998 colon = test system: HCC-2998 colon
K-562 leukemia = test system: K-562 leukemia
KM12 colon = test system: KM12 colon
DU-145 prostate = test system: DU-145 prostate
NCI-H522 lung = test system: NCI-H522 lung
SW-620 colon = test system: SW-620 colon
A549 NSCLC = test system: A549 NSCLC
U251 CNS = test system: U251 CNS
BT-549 breast = test system: BT-549 breast
SF-268 CNS = test system: SF-268 CNS
COLO 205 colon = test system: COLO 205 colon
OVCAR-4 ovarian = test system: OVCAR-4 ovarian
CCRF-CEM leukemia = test system: CCRF-CEM leukemia
LOX IMVI melanoma = test system: LOX IMVI melanoma
HCT-15 colon = test system: HCT-15 colon
OVCAR-5 ovarian = test system: OVCAR-5 ovarian
RXF 393 renal = test system: RXF 393 renal
MOLT-4 leukemia = test system: MOLT-4 leukemia
SK-OV-3 ovarian = test system: SK-OV-3 ovarian
NCI-H226 lung = test system: NCI-H226 lung
NCI-H23 lung = test system: NCI-H23 lung
MDA-MB-231 breast = test system: MDA-MB-231 breast
CAKI-1 renal = test system: CAKI-1 renal
UACC-62 melanoma = test system: UACC-62 melanoma
HL-60(TB) leukemia = test system: HL-60(TB) leukemia
HOP-62 NSCLC = test system: HOP-62 NSCLC
HS 578T breast = test system: HS 578T breast
TK-10 renal = test system: TK-10 renal
SNB-75 CNS = test system: SNB-75 CNS
SR leukemia = test system: SR leukemia
SN12C renal = test system: SN12C renal
SK-MEL-5 melanoma = test system: SK-MEL-5 melanoma
MCF7 breast = test system: MCF7 breast
SF-539 CNS = test system: SF-539 CNS
PC-3 prostate = test system: PC-3 prostate
NCI/ADR-RES ovarian = test system: NCI/ADR-RES ovarian
SF-295 CNS = test system: SF-295 CNS
SNB-19 CNS = test system: SNB-19 CNS
UACC-257 melanoma = test system: UACC-257 melanoma
HT29 colon = test system: HT29 colon
786-0 renal = test system: 786-0 renal
MDA-MB-435 = test system: MDA-MB-435
A498 renal = test system: A498 renal
M14 melanoma = test system: M14 melanoma
MALME-3M melanoma = test system: MALME-3M melanoma
ACHN renal = test system: ACHN renal

`C#C[C@]1(O)CC[C@H]2[C@@H]3CC=C4c5sc(Nc6cccc(C)n6)nc5CC[C@]4(C)[C@H]3CC[C@@]21C` showed a GI50 (SK-MEL-28 melanoma) of 0.543 µM, a TGI (SK-MEL-28 melanoma) of 2.28 µM and a GI50 (NCI-H460 lung) of 1.46 µM. For the same compound, the TGI (NCI-H460 lung) was 3.04 µM, the GI50 (UO-31 renal) was 1.14 µM and the TGI (UO-31 renal) was 2.56 µM. The GI50 (IGROV1 ovarian) was 2.74 µM, the TGI (IGROV1 ovarian) was 11.5 µM and the GI50 (EKVX NSCLC) was 1.39 µM. It also gave a TGI (EKVX NSCLC) of 10.1 µM, a GI50 (T-47D breast) of 1.98 µM and a TGI (T-47D breast) of 6.64 µM. The GI50 (OVCAR-8 ovarian) was 1.45 µM, the TGI (OVCAR-8 ovarian) was 4.78 µM and the GI50 (HCT-116 colon) was 1.35 µM. For the same compound, the TGI (HCT-116 colon) was 3.04 µM, the GI50 (HOP-92 NSCLC) was 1.59 µM and the TGI (HOP-92 NSCLC) was 4.15 µM. The GI50 (HCC-2998 colon) was 2.19 µM, the TGI (HCC-2998 colon) was 5.52 µM and the GI50 (K-562 leukemia) was 0.666 µM. It also gave a TGI (K-562 leukemia) of 3.1 µM, a GI50 (KM12 colon) of 1.85 µM and a TGI (KM12 colon) of 5.99 µM. For the same compound, the GI50 (DU-145 prostate) was 2.8 µM, the TGI (DU-145 prostate) was 12 µM and the GI50 (NCI-H522 lung) was 1.66 µM. For the same compound, the TGI (NCI-H522 lung) was 3.26 µM, the GI50 (SW-620 colon) was 1.56 µM and the TGI (SW-620 colon) was 3.09 µM. For the same compound, the GI50 (A549 NSCLC) was 1.89 µM, the TGI (A549 NSCLC) was 8.31 µM and the GI50 (U251 CNS) was 0.558 µM. It also gave a TGI (U251 CNS) of 1.93 µM, a GI50 (BT-549 breast) of 1.49 µM and a TGI (BT-549 breast) of 3.31 µM. The GI50 (SF-268 CNS) was 2.02 µM, the TGI (SF-268 CNS) was 7.37 µM and the GI50 (COLO 205 colon) was 1.76 µM. The TGI (COLO 205 colon) was 3.38 µM, the GI50 (OVCAR-4 ovarian) was 3.02 µM and the TGI (OVCAR-4 ovarian) was 16.8 µM. It also gave a GI50 (CCRF-CEM leukemia) of 1.36 µM, a TGI (CCRF-CEM leukemia) of 6.35 µM and a GI50 (LOX IMVI melanoma) of 1.39 µM. For the same compound, the TGI (LOX IMVI melanoma) was 2.79 µM, the GI50 (HCT-15 colon) was 1.13 µM and the TGI (HCT-15 colon) was 2.71 µM. The GI50 (OVCAR-5 ovarian) was 1.7 µM, the TGI (OVCAR-5 ovarian) was 3.78 µM and the GI50 (RXF 393 renal) was 0.23 µM. The TGI (RXF 393 renal) was 0.579 µM, the GI50 (MOLT-4 leukemia) was 0.552 µM and the TGI (MOLT-4 leukemia) was 3.05 µM. It also gave a GI50 (SK-OV-3 ovarian) of 1.37 µM, a TGI (SK-OV-3 ovarian) of 3.25 µM and a GI50 (NCI-H226 lung) of 2.69 µM. For the same compound, the TGI (NCI-H226 lung) was 12.1 µM, the GI50 (NCI-H23 lung) was 1.57 µM and the TGI (NCI-H23 lung) was 6.03 µM. The GI50 (MDA-MB-231 breast) was 1.24 µM, the TGI (MDA-MB-231 breast) was 3.38 µM and the GI50 (CAKI-1 renal) was 1.53 µM. For the same compound, the TGI (CAKI-1 renal) was 4.34 µM, the GI50 (UACC-62 melanoma) was 1.49 µM and the TGI (UACC-62 melanoma) was 3.3 µM. It also gave a GI50 (HL-60(TB) leukemia) of 0.71 µM, a TGI (HL-60(TB) leukemia) of 3.46 µM and a GI50 (HOP-62 NSCLC) of 1.33 µM. The TGI (HOP-62 NSCLC) was 2.93 µM, the GI50 (HS 578T breast) was 0.343 µM and the TGI (HS 578T breast) was 2.02 µM. The GI50 (TK-10 renal) was 2.46 µM, the TGI (TK-10 renal) was 7.67 µM and the GI50 (SNB-75 CNS) was 1.09 µM. The TGI (SNB-75 CNS) was 8.32 µM, the GI50 (SR leukemia) was 0.403 µM and the TGI (SR leukemia) was 2.09 µM. It also gave a GI50 (SN12C renal) of 1.62 µM, a TGI (SN12C renal) of 3.2 µM and a GI50 (SK-MEL-5 melanoma) of 1.84 µM. For the same compound, the TGI (SK-MEL-5 melanoma) was 3.7 µM, the GI50 (MCF7 breast) was 1.24 µM and the TGI (MCF7 breast) was 3.52 µM. The GI50 (SF-539 CNS) was 0.28 µM, the TGI (SF-539 CNS) was 1.17 µM and the GI50 (PC-3 prostate) was 0.979 µM. The TGI (PC-3 prostate) was 5.54 µM, the GI50 (NCI/ADR-RES ovarian) was 1.82 µM and the TGI (NCI/ADR-RES ovarian) was 7.41 µM. The GI50 (SF-295 CNS) was 0.329 µM, the TGI (SF-295 CNS) was 1.36 µM and the GI50 (SNB-19 CNS) was 1.2 µM. It also gave a TGI (SNB-19 CNS) of 3.82 µM, a GI50 (UACC-257 melanoma) of 1.62 µM and a TGI (UACC-257 melanoma) of 3.46 µM. The GI50 (HT29 colon) was 1.5 µM, the TGI (HT29 colon) was 3.17 µM and the GI50 (786-0 renal) was 0.437 µM. The TGI (786-0 renal) was 1.96 µM, the GI50 (MDA-MB-435) was 2.24 µM and the TGI (MDA-MB-435) was 6.44 µM. It also gave a GI50 (A498 renal) of 1.28 µM, a TGI (A498 renal) of 2.62 µM and a GI50 (M14 melanoma) of 1.52 µM. The TGI (M14 melanoma) was 3.57 µM, the GI50 (MALME-3M melanoma) was 1.4 µM and the TGI (MALME-3M melanoma) was 3.36 µM. The GI50 (ACHN renal) was 1.2 µM and the TGI (ACHN renal) was 3.55 µM.
